According to patent publication US20260317319A1, “NOVEL ERGOLINES AND METHODS OF TREATING MOOD DISORDERS” (Gilgamesh Pharma Inc., priority 2023, published 2026):
Like-named read-outs stand apart in the source and are kept apart here.

What was measured:
5-HT2B receptor = target: T1, 5-HT2B receptor (Homo sapiens, UniProt P41595); assay: cell-based; assay type: cell-based; conditions: HEK293, agonist, Ca2+ flux, HEK293, max dose; read-out: 5-HT2B % Act @ Max Dose
T1 construct: expressed in transfected cells; host or cells: HEK293, stably transfected
Procedure, shortened: (§1)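 FLIPR Tetra fluorescence read-out of calcium flux after compound addition. Receptor-expressing stable lines were used (HEK293 for 2A/2B; CHO with Gα15 for 1A), dye-loaded with Fluo-4 Direct and 2.5 mM final probenecid, 50 min at 37 °C.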

5-HT1B receptor = target: T2, 5-HT1B receptor (Homo sapiens, UniProt P28222); assay: cAMP accumulation functional assay at 5-HT1B; assay type: cell-based; conditions: agonist, cAMP accumulation, max dose; read-out: 5-HT1B % Act @ Max Dose
T2 construct: expressed in transfected cells
Procedure, shortened: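 Agonist activity measured as cAMP accumulation in cells stably transfected with human 5-HT1B. Cells incubated 60 min at RT, then detection reagent added for a further 60 min at RT before plate reading.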

in vitro [1] = assay type: in vitro ADME, rat; conditions: RLM (male Sprague-Dawley) 0.50 mg/mL, NADPH 1 mM, 1 μM compound, pH 7.4, 37° C., 60 min
From the text: RLM Stability Pooled RLM from male Sprague-Dawley rats (Xenotech R1000) were used.

5-HT2A receptor [2] = target: T3, 5-HT2A receptor (Homo sapiens, UniProt P28223); assay: cell-based; assay type: cell-based; design: expressed in transfected cells; host or cells: HEK293, stably transfected; conditions: HEK293, agonist, Ca2+ flux, HEK293, max dose; read-out: 5-HT2A % Act @ Max Dose
Procedure, shortened: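 Cells plated and incubated overnight at 37 °C, 5% CO2; Fluo-4 Direct dye with probenecid (final 2.5 mM) added, 50 min at 37 °C; test compounds transferred and Ca2+ signal recorded. HEK293 hosts for 5-HT2A/2B, CHO + Gα15 for 5-HT1A.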

in vitro [3] = assay type: in vitro ADME, mouse; conditions: MLM (male CD-1) 0.50 mg/mL, NADPH 1 mM, 1 μM compound, pH 7.4, 37° C., 60 min
From the text: MLM Stability Pooled MLM from male CD-1 mice (BIOIVT M00501) were used.

in vitro [4] = assay type: in vitro ADME, human; conditions: HLM 0.50 mg/mL, NADPH 1 mM, 1 μM compound, pH 7.4, 37° C., 60 min
5-HT1A receptor = target: T4, 5-HT1A receptor (Homo sapiens, UniProt P08908); assay: cell-based; conditions: CHO, agonist, Ca2+ flux, CHO cells with Gα15, max dose; read-out: 5-HT1A % Act @ Max Dose
T4 construct: expressed in transfected cells; host or cells: CHO cells, stably transfected
T4 sequence (P08908 1-422): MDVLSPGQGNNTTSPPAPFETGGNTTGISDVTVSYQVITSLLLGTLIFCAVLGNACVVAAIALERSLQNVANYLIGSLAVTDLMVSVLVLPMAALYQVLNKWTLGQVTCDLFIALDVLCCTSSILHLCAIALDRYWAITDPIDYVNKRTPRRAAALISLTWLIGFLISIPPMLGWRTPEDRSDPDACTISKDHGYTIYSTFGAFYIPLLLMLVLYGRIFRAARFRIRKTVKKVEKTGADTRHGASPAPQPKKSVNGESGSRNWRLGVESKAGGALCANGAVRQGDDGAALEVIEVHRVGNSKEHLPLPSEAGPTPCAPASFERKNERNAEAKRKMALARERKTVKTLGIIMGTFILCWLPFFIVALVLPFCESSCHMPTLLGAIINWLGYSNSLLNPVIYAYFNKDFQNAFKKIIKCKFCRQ
Procedure, shortened: as §1

[5] = target: T5, Alpha1A adrenergic receptor (Homo sapiens, UniProt P35348); assay: Ca2+ flux functional assay at Alpha1A; assay type: cell-based; conditions: agonist, Ca2+ flux, max dose; read-out: Alpha 1A % Act @ Max Dose
T5 construct: expressed in transfected cells
T5 sequence (P35348 1-466): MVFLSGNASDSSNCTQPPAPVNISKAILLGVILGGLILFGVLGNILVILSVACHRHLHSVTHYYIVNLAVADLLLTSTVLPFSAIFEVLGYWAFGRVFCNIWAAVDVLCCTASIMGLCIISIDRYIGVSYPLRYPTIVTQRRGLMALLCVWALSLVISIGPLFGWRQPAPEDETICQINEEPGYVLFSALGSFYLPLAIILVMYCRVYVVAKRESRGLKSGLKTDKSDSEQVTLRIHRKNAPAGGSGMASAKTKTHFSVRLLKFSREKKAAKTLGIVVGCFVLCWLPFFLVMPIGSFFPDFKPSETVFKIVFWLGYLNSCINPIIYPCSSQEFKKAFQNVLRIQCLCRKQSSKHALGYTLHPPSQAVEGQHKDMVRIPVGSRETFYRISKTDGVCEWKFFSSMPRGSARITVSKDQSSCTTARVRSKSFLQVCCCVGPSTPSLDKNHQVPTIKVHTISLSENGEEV
Procedure: Disclosed compounds were tested for agonist activity at several adrenergic (Alpha1A and Alpha2A) and dopamine (D1 and D2) receptor subtypes using Ca^2+ flux functional assays, with the results summarized in Table 6. Selectivity for the 5-HT2A receptor over these other targets varied depending on the specific target and compound.
Functional Assays at Adrenergic and Dopamine Receptors. Agonist activity at Alpha1A, Alpha2A, D1, and D2 receptors was determined using a FLIPR Ca^2+ flux assay at WuXi AppTec (Hong Kong) Limited according to their standard protocols. Briefly, stably transfected cells expressing the receptor of interest were grown and plated in a 384 well plate and incubated at 37° C. and 5% CO2 overnight. A solution of 250 mM probenecid in 1 mL FLIPR assay buffer was prepared fresh. This was combined with a fluorescent dye (Fluo-4 Direct™) to make a final assay concentration of 2.5 mM. Compounds were diluted 1:3.16 for 10 points and 750 nL was added to a 384 well compound plate using ECHO along with 30 μL assay buffer. The fluorescent dye was then added to the assay plate along with assay buffer to a final volume of 40 μL. The cell plate was incubated for 50 min at 37° C. and 5% CO2 and placed into the FLIPR Tetra along with the compound plate. 10 μL of references and compounds were then transferred from the compound plate into the cell plate and the fluorescent signal was read.

5-HT2A receptor [6] = target: T3, 5-HT2A receptor; assay: biochemical; assay type: binding; design: expressed in transfected cells; host or cells: HEK293, stably transfected; conditions: [3H]ketanserin 1 nM; HEK293 stable cell line; 1 h, 25 °C
Procedure, shortened: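 Affinity was measured in radioligand binding experiments using [^3H]ketanserin as the labelled ligand, following methods adapted from published procedures.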

in vitro [7] = assay type: in vitro ADME, human; conditions: for metabolised: human, microsomes, role: substrate, metabolite 83 formed in HLM, read-out: Metabolite Formation (percent formation of metabolite 83)
Procedure: The ability of deuteration in compound 68 to attenuate formation of metabolite 83 compared to the same transformation of the non-deuterated compound 18 was also determined.
HLM Stability. Pooled HLM from adult male and female donors (Corning 452117) were used.

Sprague Dawley rats = assay: Forced swim test (FST) in rats; assay type: in vivo, rat; conditions: rat FST, dose 20 mg/kg, positive control; average of 3 independent experiments
Procedure: Compound 1 induced antidepressant-like effects in the forced swim test (FST) in rats with a 23.5-h pre-treatment time (FIG. 2).
Animals. Male Sprague Dawley rats, aged 9-10 weeks, were used in this experiment. Animals were housed in groups of 2 under controlled temperature (22±3° C.) and relative humidity (30-70%) conditions, with 12-hour light/dark cycles, and with ad libitum food and water. This study was carried out in strict accordance with the requirements of the Committee for the Purpose of Control and Supervision of Experiments on Animals (CPCSEA), India. All efforts were made to minimize suffering.
Forced Swim Test (FST). […] Rats were handled for about 2 min daily for the 5 days prior to the beginning of the experimental procedure. On the first day of the experiment (i.e., Day 0), post randomization, training swim sessions (Swim 1) were conducted between 12:00 and 18:00 h with all animals by placing rats in individual glass cylinders (46 cm tall×20 cm in diameter) containing 23-25° C. water 30 cm deep for 15 minutes. At the conclusion of Swim 1, animals were dried with paper towels, placed in heated drying cages for 15 minutes, and then returned to their home cages. Animals were then administered the appropriate drug or vehicle treatment(s), as described above. For clarity, a compound administration time of 23.5 h before Swim 2 means 0.5 h after the start of Swim 1 and 0.25 h after the completion of Swim 1 (i.e., immediately after return to the home cage). On Day 1 (i.e., 24 h after start of Swim 1), animals performed the test swim (Swim 2) for a period of 5 min but otherwise under the same conditions as Swim 1. During all swim sessions, the water was changed between each animal.
Behavioral scoring was conducted by observers who were blind to the treatment groups. Animals were continuously observed during Swim 2 and the total time spent engaging in the following behaviors was recorded: immobile, swimming, and climbing. A rat was judged to be immobile when it remained floating in the water without struggling and was making only those movements necessary to keep its head above water. A rat was judged to be swimming when it made active swimming motions, more than necessary to merely maintain its head above water (e.g., moving around in the cylinder). A rat was judged to be climbing when it made active movements with its forepaws in and out of the water, usually directed against the walls.
Statistical Analysis. The data points shown represent the mean±standard error of the mean (SEM). Analysis was performed using GraphPad Prism 6. Comparisons between groups were performed using the one-way analysis of variance (ANOVA), followed by Dunnett's test for comparisons to vehicle.
Additional disclosed compounds were tested in the forced swim test (FST) in rats according to the procedure described in Example 58 (compounds 18 and 19 administered in 10% DMSO in saline).

T3 sequence (P28223 whole entry): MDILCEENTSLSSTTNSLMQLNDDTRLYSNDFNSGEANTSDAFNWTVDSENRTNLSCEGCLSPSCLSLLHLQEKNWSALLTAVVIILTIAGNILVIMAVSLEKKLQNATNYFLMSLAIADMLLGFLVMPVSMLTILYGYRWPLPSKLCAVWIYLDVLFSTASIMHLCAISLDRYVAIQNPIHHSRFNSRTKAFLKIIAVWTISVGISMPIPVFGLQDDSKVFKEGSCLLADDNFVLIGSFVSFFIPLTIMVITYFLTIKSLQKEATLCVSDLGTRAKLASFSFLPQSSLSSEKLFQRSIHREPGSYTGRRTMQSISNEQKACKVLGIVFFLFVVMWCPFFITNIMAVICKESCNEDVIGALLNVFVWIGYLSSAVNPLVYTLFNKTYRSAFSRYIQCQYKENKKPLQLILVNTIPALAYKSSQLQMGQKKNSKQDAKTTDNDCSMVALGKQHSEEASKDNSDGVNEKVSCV
T1 sequence (P41595 whole entry): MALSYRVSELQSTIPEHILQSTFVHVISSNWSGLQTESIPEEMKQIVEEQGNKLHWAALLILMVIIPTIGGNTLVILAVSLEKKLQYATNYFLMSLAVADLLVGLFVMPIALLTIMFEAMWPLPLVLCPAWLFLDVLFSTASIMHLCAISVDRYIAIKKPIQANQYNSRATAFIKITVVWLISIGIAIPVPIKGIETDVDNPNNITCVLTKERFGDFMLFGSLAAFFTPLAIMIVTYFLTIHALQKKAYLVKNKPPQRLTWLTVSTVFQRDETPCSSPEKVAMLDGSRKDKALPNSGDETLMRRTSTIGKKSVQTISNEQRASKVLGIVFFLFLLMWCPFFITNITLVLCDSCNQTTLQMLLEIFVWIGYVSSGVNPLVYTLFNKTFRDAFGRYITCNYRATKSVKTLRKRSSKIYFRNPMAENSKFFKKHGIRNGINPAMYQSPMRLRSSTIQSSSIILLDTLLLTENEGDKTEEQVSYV
T2 sequence (P28222 whole entry): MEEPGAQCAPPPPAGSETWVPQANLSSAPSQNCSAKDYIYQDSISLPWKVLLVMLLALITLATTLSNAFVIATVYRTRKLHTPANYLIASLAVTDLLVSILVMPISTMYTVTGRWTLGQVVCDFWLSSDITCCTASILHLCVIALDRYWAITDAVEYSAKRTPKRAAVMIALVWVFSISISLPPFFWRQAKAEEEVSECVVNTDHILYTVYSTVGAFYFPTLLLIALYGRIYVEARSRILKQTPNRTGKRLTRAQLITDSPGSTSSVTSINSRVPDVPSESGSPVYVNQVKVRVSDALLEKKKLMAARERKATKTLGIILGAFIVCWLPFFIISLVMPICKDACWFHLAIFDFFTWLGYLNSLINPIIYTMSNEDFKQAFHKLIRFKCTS

Q: What does the source list for `CCN(CC)C(=O)[C@@H]1C=C2c3cccc4[nH]cc(c34)C[C@H]2N(CC2CC2)C1` [Compound 13, (6aR,9R)—N,N-diethyl-7-(cyclopropylmethyl)-4,6,6a,7,8,9-hexahydroindolo[4,3-fg]quinoline-9-carboxamide]?
A: Emax (5-HT2B receptor): 91.8%; Emax (5-HT1B receptor): 90.4%; half-life (t1/2) (in vitro [1]): 27.7 min; Emax (5-HT2A receptor [2]): 92.6%; half-life (t1/2) (in vitro [3]): 3.7 min; half-life (t1/2) (in vitro [4]): 21.1 min; Emax (5-HT1A receptor): 83.1%; Emax [5]: 80.8%

Q: For `[2H]C([2H])(c1cccc(OC)c1)N1C[C@H](C(=O)N(CC)CC)C=C2c3cccc4[nH]cc(c34)C[C@H]21` [Compound 68, (6aR,9R)—N,N-diethyl-7-((3-methoxyphenyl)methyl-d2)-4,6,6a,7,8,9-hexahydroindolo[4,3-fg]quinoline-9-carboxamide], which Ki (5-HT2A receptor [6]) is on record?
A: 3.02 nM

Q: And the microsomal CLint (in vitro [1]; rat, microsomes, read-out: Intrinsic clearance (Clint))?
A: 360 µL/min/mg

Q: And the half-life (in vitro [1]; rat, microsomes, read-out: half-life (t1/2))?
A: 3.9 min

Q: What about the microsomal CLint (in vitro [3]; mouse, microsomes, read-out: Intrinsic clearance (Clint)) of the same compound?
A: 436 µL/min/mg

Q: What about the half-life (in vitro [3]; mouse, microsomes, read-out: half-life (t1/2)) of the same compound?
A: 3.2 min

Q: And the microsomal CLint (in vitro [4]; human, microsomes, read-out: Intrinsic clearance (Clint))?
A: 130 µL/min/mg

Q: What about the half-life (in vitro [4]; human, microsomes, read-out: half-life (t1/2)) of the same compound?
A: 10.6 min

Q: And the “formation of metabolite 83” value (in vitro [7]; formation of 83 from 68 compared to formation from 18)?
A: substantially attenuated compared to formation of 83 from 18

Q: And the metabolised (in vitro [7]; T = 0)?
A: 0.1%

Q: What about the metabolised (in vitro [7]; T = 5) of the same compound?
A: 2.9%

Q: And the metabolised (in vitro [7]; T = 15)?
A: 4.3%

Q: What about the metabolised (in vitro [7]; T = 30) of the same compound?
A: 5.7%

Q: And the metabolised (in vitro [7]; T = 45)?
A: 5.8%

Q: What about the metabolised (in vitro [7]; T = 60) of the same compound?
A: 6.2%

Q: For `CNCCCN1c2ccccc2CCc2ccccc21` [Desipramine, desipramine, reference compound], which “Time Immobile” value (Sprague Dawley rats) is on record?
A: 60.93 s
